These results are taken from US20240067651A1 (Biohaven Therapeutics Ltd., priority 2019, published 2024).

A value given as a limit tells only on which side of the number the result lay.

Series [1] in a line: Caco-2 Permeability Assay. The class given is in vitro ADME, human. The conditions noted are these: human, Caco-2, pH 7.4. The method, boiled down: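 Caco-2 monolayers cultured 21 days (TEER >600 […]); test article at 10 μM in HBSS/HEPES pH 7.4 transport medium, dosed apical or basolateral, ±Pgp inhibitor. Incubated 90 min at 37 °C; both compartments quantified by LC-MS/MS. Papp (A→B, B→A), efflux ratio and % recovery calculated.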

The nature of series [2]: Stability in Simulated Gastric Fluid (SGF). The class given is in vitro ADME. The arrangement: key: % parent compound remaining relative to 0-minute sample. The method, boiled down:
(§1)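 Percent parent compound remaining, by LC-MS/MS against the 0-minute sample, is reported after incubation at 2 μg/mL (final) in pepsin-containing SGF at pH 1.2 or pancreatin-containing SIF at pH 6.8. Incubations run at 37° C for up to 60 minutes.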

A short description of series [3]: Stability in Simulated Intestinal Fluid (SIF). The class given is in vitro ADME. The arrangement: key: % parent compound remaining relative to 0-minute sample. The method, boiled down: as §1
The nature of a further series: Plasma Stability. The format is in vitro ADME, human. The conditions noted are these: % remaining @ 1 h. The procedure, abridged:
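Compounds incubated at 1 μM in fresh human plasma for 1 hour at 37° C, then protein-precipitated with acetonitrile/formic acid containing internal standard. Remaining parent measured by LC-MS/MS in triplicate, expressed as percent of control remaining.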

The mark [4] stands for this setting: bare number, unit or time not given.

Take `CC(C)C[C@H](N)C(=O)OCSc1nc(=O)c2c(ccn2COC(=O)[C@@H](N)CC(C)C)n1CCOC(C)C.O=C(O)C(F)(F)F.O=C(O)C(F)(F)F` [Example 321, bis(trifluoroacetic acid) {[5-({[(2S)-2-amino-4-methylpentanoyl]oxy}methyl)-4-oxo-1-[2-(propan-2-yloxy)ethyl]-1H,4H,5H-pyrrolo[3,2-d]pyrimidin-2-yl]sulfanyl}methyl (2S)-2-amino-4-methylpentanoate]: the Papp (in general, a coefficient for how fast a substance crosses the barrier) at 90 min, 10 µM in series [1] was less than 0.365 ×10⁻⁶ cm/s. Moreover, the SGF in series [2] (% remaining @ 1 h) is listed as 92%@ 1 h. The SIF in series [3] (% remaining @ 1 h) is recorded as 2%@ 1 h. Further, the “human Plasma stability” value in the series “Plasma Stability” was 1%@ 1 h.
In series [1], `CC(C)C[C@H](N)C(=O)OCn1c(=O)c2c(ccn2COC(=O)[C@@H](N)CC(C)C)n(CCOC(C)C)c1=S.O=C(O)C(F)(F)F.O=C(O)C(F)(F)F` [Example 322, bis(trifluoroacetic acid) [3-({[(2S)-2-amino-4-methylpentanoyl]oxy}methyl)-4-oxo-1-[2-(propan-2-yloxy)ethyl]-2-sulfanylidene-1H,2H,3H,4H,5H-pyrrolo[3,2-d]pyrimidin-5-yl]methyl (2S)-2-amino-4-methylpentanoate] came in with a Papp at 90 min, 10 µM of less than 0.106 ×10⁻⁶ cm/s. Also, the SGF in series [2] (% remaining @ 1 h) is listed as 56%@ 1 h. Moreover, the SIF in series [3] (% remaining @ 1 h) is 61%@ 1 h. For the same molecule, the “human Plasma stability” value in “Plasma Stability” was 64%@ 1 h.
The like results for `CC(C)C[C@H](N)C(=O)OCn1ccc2c1c(=O)n(CO)c(=S)n2CCOC(C)C.O=C(O)C(F)(F)F` [Example 323, trifluoroacetic acid [3-(hydroxymethyl)-4-oxo-1-[2-(propan-2-yloxy)ethyl]-2-sulfanylidene-1H,2H,3H,4H,5H-pyrrolo[3,2-d]pyrimidin-5-yl]methyl (2S)-2-amino-4-methylpentanoate] were, in that order, less than 0.355 ×10⁻⁶ cm/s, 95%@ 1 h, 52%@ 1 h and 12%@ 1 h.
For `CC(C)C[C@@H](N)C(=O)OCSc1nc(=O)c2c(ccn2COC(=O)[C@H](N)CC(C)C)n1CCOC(C)C.O=C(O)C(F)(F)F.O=C(O)C(F)(F)F` [Example 325, bis(trifluoroacetic acid) {[5-({[(2R)-2-amino-4-methylpentanoyl]oxy}methyl)-4-oxo-1-[2-(propan-2-yloxy)ethyl]-1H,4H,5H-pyrrolo[3,2-d]pyrimidin-2-yl]sulfanyl}methyl (2R)-2-amino-4-methylpentanoate] the same measures were 0.908 ×10⁻⁶ cm/s, 99%@ 1 h, 3%@ 1 h and 1%@ 1 h.
The like results for `CC(C)C[C@@H](N)C(=O)OCn1c(=O)c2c(ccn2COC(=O)[C@H](N)CC(C)C)n(CCOC(C)C)c1=S.O=C(O)C(F)(F)F.O=C(O)C(F)(F)F` [Example 326, bis(trifluoroacetic acid) [3-({[(2R)-2-amino-4-methylpentanoyl]oxy}methyl)-4-oxo-1-[2-(propan-2-yloxy)ethyl]-2-sulfanylidene-1H,2H,3H,4H,5H-pyrrolo [3,2-d]pyrimidin-5-yl]methyl (2R)-2-amino-4-methylpentanoate] were, in that order, less than 0.338 ×10⁻⁶ cm/s, 97%@ 1 h, 9%@ 1 h and 17%@ 1 h.
In series [1], `CC(C)C[C@@H](N)C(=O)OCn1ccc2c1c(=O)n(CO)c(=S)n2CCOC(C)C.O=C(O)C(F)(F)F` [Example 327, trifluoroacetic acid [3-(hydroxymethyl)-4-oxo-1-[2-(propan-2-yloxy)ethyl]-2-sulfanylidene-1H,2H,3H,4H,5H-pyrrolo[3,2-d]pyrimidin-5-yl]methyl (2R)-2-amino-4-methylpentanoate] displayed a Papp at 90 min, 10 µM of less than 1.03 ×10⁻⁶ cm/s. In addition, the SGF in series [2] (% remaining @ 1 h) was 100%@ 1 h. Besides, the SIF in series [3] (% remaining @ 1 h) is listed as 49%@ 1 h. Besides, the “human Plasma stability” value in the series “Plasma Stability” amounted to 21%@ 1 h.
Consider `CC(C)OCCn1c(=S)[nH]c(=O)c2c1ccn2COC(=O)CCCCOC(=O)CN.O=C(O)C(F)(F)F` [Example 330, trifluoroacetic acid {4-oxo-1-[2-(propan-2-yloxy)ethyl]-2-sulfanylidene-1H,2H,3H,4H,5H-pyrrolo[3,2-d]pyrimidin-5-yl}methyl 5-[(2-aminoacetyl)oxy]pentanoate], for which, in series [1], the Papp at 90 min, 10 µM was found to be 0.641 ×10⁻⁶ cm/s. Further, the SGF in series [2] (% remaining @ 1 h) is 84% @ 1 h. Besides, the SIF in series [3] (% remaining @ 1 h) was 7% @ 1 h. For the same molecule, the “human Plasma stability” value in “Plasma Stability” came out at 2% @ 1 h.
In the case of `CC(C)OCCn1c(SCOC(=O)CCCCOC(=O)CN)nc(=O)c2c1ccn2COC(=O)CCCCOC(=O)CN.O=C(O)C(F)(F)F.O=C(O)C(F)(F)F` [Example 331, bis (trifluoroacetic acid) ({5-[{{5-[(2-aminoacetyl)oxy]pentanoyl}oxy)meth-yl]-4-oxo-1-[2-(propan-2-yloxy)ethyl]-1H,4H,5H-pyrrolo[3,2-d]pyrimidin-2-yl}sulfanyl)methyl 5-[(2-aminoacetyl)oxy]pentanoate], the Papp at 90 min, 10 µM in series [1] was found to be 3.68 ×10⁻⁶ cm/s. The SGF in series [2] (% remaining @ 1 h) is 93% @ 1 h. Besides, in series [3] (% remaining @ 1 h), the SIF is listed as 1% @ 1 h. For the same molecule, the “human Plasma stability” value in “Plasma Stability” was determined as 1% @ 1 h.
`CC(C)OCCn1c(=S)n(COC(=O)CCCCOC(=O)CN)c(=O)c2c1ccn2COC(=O)CCCCOC(=O)CN.O=C(O)C(F)(F)F.O=C(O)C(F)(F)F` [Example 332, bis (trifluoroacetic acid) {3-[{{5-[(2-aminoacetyl)oxy]pentanoyl}oxy)meth-yl]-4-oxo-1-[2-(propan-2-yloxy)ethyl]-2-sulfanylidene-1H,2H,3H,4H,5H-pyrrolo[3,2-d]pyrimidin-5-yl}methyl 5-[(2-aminoacetyl)oxy]pentanoate] had an apparent permeability coefficient (Papp) at 90 min, 10 µM in series [1] of less than 0.073 ×10⁻⁶ cm/s. Moreover, the SGF in series [2] (% remaining @ 1 h) was 91% @ 1 h. In addition, in series [3] (% remaining @ 1 h), the SIF is listed as 4% @ 1 h. Moreover, the “human Plasma stability” value in the series “Plasma Stability” is listed as 4% @ 1 h.
On to `CC(C)OCCn1c(=S)[nH]c(=O)c2c1ccn2COC(=O)CCCCOC(=O)[C@@H](NC(=O)OC(C)(C)C)C(C)C` [Example 333, {4-oxo-1-[2-(propan-2-yloxy)ethyl]-2-sulfanylidene-1H,2H,3H,4H,5H-pyrrolo[3,2-d]pyrimidin-5-yl}methyl 5-{[(2S)-2-{[(tert-butoxy)carbonyl]amino}-3-methylbutanoyl]oxy}pentanoate], for which, in series [1], the Papp at 90 min, 10 µM was less than 0.072 ×10⁻⁶ cm/s. Also, the SGF in series [2] (% remaining @ 1 h) is recorded as 98% @ 1 h. Moreover, in series [3] (% remaining @ 1 h), the SIF is 4% @ 1 h. For the same molecule, the “human Plasma stability” value in “Plasma Stability” is reported as 5% @ 1 h.
The molecule `CC(C)OCCn1c(=S)[nH]c(=O)c2c1ccn2COC(=O)CCCCOC(=O)[C@H](Cc1ccccc1)NC(=O)OC(C)(C)C` [Example 334, {4-oxo-1-[2-(propan-2-yloxy)ethyl]-2-sulfanylidene-1H,2H,3H,4H,5H-pyrrolo[3,2-d]pyrimidin-5-yl}methyl 5-{[(2S)-2-{[(tert-butoxy)carbonyl]amino}-3-phenylpropanoyl]oxy}pentanoate] returned an apparent permeability coefficient (Papp) at 90 min, 10 µM in series [1] of 6.26 ×10⁻⁶ cm/s. Moreover, the SGF in series [2] (setting [4]) is 90. Also, in series [3] (setting [4]), the SIF is given as 2. Further, the “human Plasma stability” value in “Plasma Stability” is recorded as 58% remaining.
For `CC(C)OCCn1c(=S)[nH]c(=O)c2c1ccn2COC(=O)CCCCOC(=O)[C@@H](N)C(C)C.O=C(O)C(F)(F)F` [Example 335, trifluoroacetic acid {4-oxo-1-[2-(propan-2-yloxy)ethyl]-2-sulfanylidene-1H,2H,3H,4H,5H-pyrrolo[3,2-d]pyrimidin-5-yl}methyl 5-{[(2S)-2-amino-3-methylbutanoyl]oxy}pentanoate] the same measures were 3.32 ×10⁻⁶ cm/s, 99, 9 and 3% remaining.
The like results for `CC(C)OCCn1c(SCO)nc(=O)c2[nH]ccc21` [Example 336, 2-[(hydroxymethyl)sulfanyl]-1-[2-(propan-2-yloxy)ethyl]-1H,4H,5H-pyrrolo[3,2-d]pyrimidin-4-one] were, in that order, 1.82 ×10⁻⁶ cm/s, 93, 6 and 73% remaining.
As to `CC(C)OCCn1c(=S)n(COC(=O)CCCCOC(=O)[C@H](N)C(C)C)c(=O)c2c1ccn2COC(=O)CCCCOC(=O)[C@H](N)C(C)C.O=C(O)C(F)(F)F.O=C(O)C(F)(F)F` [Example 339, bis(trifluoroacetic acid) (3-{[(5-{[(2R)-2-amino-3-methylbutanoyl]oxy}pentanoyl)oxy]methyl}-4-oxo-1-[2-(propan-2-yloxy)ethyl]-2-sulfanylidene-1H,2H,3H,4H,5H-pyrrolo[3,2-d]pyrimidin-5-yl)methyl 5-{[(2R)-2-amino-3-methylbutanoyl]oxy}pentanoate], the Papp at 90 min, 10 µM in series [1] is 3.86 ×10⁻⁶ cm/s. The SGF in series [2] (setting [4]) was 99. Besides, in series [3] (setting [4]), the SIF is given as 72. Moreover, the “human Plasma stability” value in “Plasma Stability” is listed as 44% remaining.
The molecule `CC(C)OCCn1c(=S)[nH]c(=O)c2c1ccn2COC(=O)CCCCOC(=O)[C@@H](N)Cc1ccccc1.O=C(O)C(F)(F)F` [Example 340, trifluoroacetic acid {4-oxo-1-[2-(propan-2-yloxy)ethyl]-2-sulfanylidene-1H,2H,3H,4H,5H-pyrrolo[3,2-d]pyrimidin-5-yl}methyl 5-{[(2S)-2-amino-3-phenylpropanoyl]oxy}pentanoate] showed a Papp at 90 min, 10 µM in series [1] of 0.644 ×10⁻⁶ cm/s. The SGF in series [2] (setting [4]) was 100. In series [3] (setting [4]), the SIF is listed as 99. Moreover, the “human Plasma stability” value in “Plasma Stability” is on record as 4% remaining.
